Source: patent US7049066B2, “Diagnosis and treatment of myocardial failure” (The Regents of the University of Colorado, priority 1997, dated 2006)

Columns and labels:
[1] = system: isolated right ventricular (RV) trabeculae from end-stage failing human hearts; conditions: 1 nM T3, incubated for 4 or 12 hours
[2] = system: α-MHC; conditions: hypothyroid rats; cited from earlier work

Row | adrenergic receptor gene expression, T3 group compared to control group [1] | Compound | SRCA gene expression, T3 group compared to control group [1] | % α-MHC isoform mRNA present following incubation ([1]; p < .05 vs. no T3) | % β-MHC isoform mRNA present following incubation ([1]; p < .05 vs. no T3) | production of α-MHC [2]
1 | no significant differences | N[C@@H](Cc1cc(I)c(Oc2ccc(O)c(I)c2)c(I)c1)C(=O)O [T3, 3,5,3′-triiodo-L-thyronine] | no significant differences | 24.5 ± 9.29 % | 75.5 ± 9.29 % | –
2 | – | O=C(O)CCc1cc(I)c(Oc2ccc(O)cc2)c(I)c1 [3,5-diiodothyroproprionic acid] | – | – | – | increase the production of (α-MHC
